Source: patent US20200197461A1, “NOVEL CANNABIS SATIVA LINES AND EXTRACTS WITH ANTI-CANCER PROPERTIES” (Pathway RX Inc., priority 2018, published 2020)
Several values for one entry are separate records, joined by “and”; a condition that tells them apart may be missing. Equal values may be shown once.

Test system: HCC1806 breast cancer cells
Experiment: MTT proliferation assay on HCC1806 cells
Assay type: cell-based, human
Procedure: HCC 1806—Primary Acantholytic Squamous Cell Carcinoma
(Colorimetric assays using the tetrazolium salt thiazolyl blue, also termed MTT, after methyl-thiazolyl-tetrazolium)
Around 1500 cells are in placed in each well in 96 well plates, 10 extracts (tested 2 concentrations each, 0.007 mg/ml and 0.015 μg/μl) were added to separate wells. Untreated cells and DMSO-treated cells were used as controls in separate wells. Experiments were performed in triplicate. A total number of 9×10^4 cells are required at each concentration. The well plates were purchased from Sigma Aldrich.
Mix cells and medium nicely, add 150 μl per well, plate eight 96-well plates for each experiment.
Place 96-well plates in a 37° C. incubator with 5% CO2. After 24 hours, the medium was changed to the medium containing extracts.
The MTT assay was performed from Day 0 to Day 7 by adding 15 μl MTT labeling reagent into each well and incubated at 37° C. for 4 hours. Thereafter, 150 μl solubilization solution was added into each well and incubated overnight in the 37° C. incubator with 5% CO2.
3-(4,5-Dimethylthiazol-2-yl)-2,5-diphenyltetrazolium bromide assays were performed using the Cell Proliferation Kit I (Roche Diagnostics GmbH) as the manufacturer's instructions. The absorbance of the samples was measured at 595 nm using a microtiter plate reader (FLUOstar Omega, BMG LABTECH). The experiments were done in triplicate.

Structure (SMILES)	effectiveness of pure cannabinoid on HCC1806 cancer cells (20 μM (0.0063 μg/μl))	effective (active) concentration on HCC1806 cancer cells (pure cannabinoid)	effective concentration on HCC1806 cancer cells, converted (pure cannabinoid, conversion of 15 μM) [µg/µL]
CCCCCc1cc(O)c2c(c1)OC(C)(C)[C@@H]1CCC(C)=C[C@@H]21 [THC, tetrahydrocannabinol]	only marginally and insignificantly effective		
C=C(C)[C@@H]1CCC(C)=C[C@H]1c1c(O)cc(CCCCC)cc1O [CBD, cannabidiol]		15 to 20 µM and 15 µM	0.0047
